Experimental findings from patent US5798381A, “Biologically active bistramides, process for their production and their applications in therapy” (Institut Francais de Recherche Scientifique pour le …, priority 1993, dated 1998) are described below.

For data set [1], the system named is mice. The experiment in a line: Acute toxicity (LD50), intravenous injection in mice. It is filed as in vivo. The note with it: statement in words. On the procedure: The LD50 of these bistramides is in fact of the order of 1.7 mg/kg (measured in mice, after injection of the product by intravenous route as a single dose).
The "LD50 " of the products of the invention has been measured for mice after injection of the products by intravenous route.

The subject of data set [2] is NSCLC solid tumours (xenograft). It is filed as in vivo, nude mouse. On the procedure:
The anti-tumoural activity of the products of the invention was studied against solid tumours of NSCLC type grafted onto a nude mouse (D. Riou, C. Roussakis, J. F. Biard, J. F. Verbist: "Comparative study of antitumor activity of bistramides A, D and K against non-small cell bronchopulmonary carcinoma", Anticancer Research, 1993, 13, 2321-2334). Each mouse received 0.2 ml of a cell solution obtained by the mechanical dispersion of about 1 g of excised mouse tumour in 4.8 ml of a sterile saline solution. The sub-cutaneous grafted tumours were measured over their long length L and their short length 1. The tumoural volume was evaluated according to the formula Vt=L×1^2 /2. The tumoural growth on day d was calculated by the formula Vtd /Vtd0 for each mouse, Vtd0 being the tumoural volume at the start of treatment.
The curve "------.circle-solid.------ " relates to the control experiment, the curves "--- .diamond-solid.---", "-- .quadrature.--" and "-- .box-solid.--" to experiments with 10, 20 and 5 mg/kg of bistramide D respectively and the curve "----*----" to an experiment with 10 mg/kg of bistramide K. Each point represents the average tumoural growth for 6 mice.
In these experiments, bistramide K is injected at the rate of 10 mg/kg by intraperitoneal route for 16 days and bistramide D at the rate of 5 mg/kg by intraperitoneal route every day for 16 days; at 10 mg/kg by intravenous route on days 1, 5, 9, 14, and at 20 mg/kg by intravenous route on days 1, 5, 9, 14.

Data set [3] has as its system KB. The data set is described as follows: Cytotoxicity, 50% inhibition of cell growth, KB. It is filed as cell-based. The settings on record: Homo sapiens, read-out: IC50 (50% inhibition of cell growth). On the procedure:
(§1) The cytoxicity results are recorded hereafter as the IC50 in μg/ml (concentration corresponding to a 50% inhibition of cell growth) on 6 tumoural lines namely KB, P388, P388/dox (resistant to doxorubicin), B16 and H429 and NSCLC-N6, which are human cells of non-small cell bronchopulmonary carcinoma type.
(§2) The determinations were carried out according to the protocol given in Cancer Chemother. Pharmacol. (1991) 28:283-292 by Roussakis et al.

Data set [4] relates to P388 (p388s). The experiment in a line: Cytotoxicity, 50% inhibition of cell growth, P388. It is filed as cell-based. The settings on record: Mus musculus, P388/S, read-out: IC50 (50% inhibition of cell growth). The protocol:
as §1, §2

For data set [5], the system named is P388/dox (p388r). The experiment in a line: Cytotoxicity, 50% inhibition of cell growth, P388/dox (resistant to doxorubicin). It is filed as cell-based. The note with it: Mus musculus. On the procedure:
as §1, §2

For data set [6], the system named is B16. The data set is described as follows: Cytotoxicity, 50% inhibition of cell growth, B16. It is filed as cell-based. The protocol:
as §1, §2

The subject of data set [7] is HT 29. The experiment in a line: Cytotoxicity, 50% inhibition of cell growth, HT 29. It is filed as cell-based. The note with it: Homo sapiens. On the procedure:
as §1, §2

Data set [8] concerns NSCLC.N6-L16. The data set is described as follows: Cytotoxicity, 50% inhibition of cell growth, NSCLC-N6. It is filed as cell-based. The note with it: Homo sapiens. On the procedure: as §1, §2

Values after ≈ are worked out from the molar mass of the structure shown. “Also recorded” adds a separate entry of the source. Like-named read-outs stand apart in the source and are kept apart here.

`C/C=C/C(=O)CC1CCC(C)C(CC(=O)NCC(O)C(C)C(=O)NCCCC2OC3(CCCC(CCC(C)/C=C(\C)C(C)O)O3)CCC2C)O1` (stereo not drawn) [Bistramide A]: the toxicity in vivo result in data set [1] is on record as “high toxicity; also recorded: toxic”; in data set [1] (listed as A bistramide) it was “acute toxicity”. Besides, in data set [2] (mouse, in vivo), the “toxicity under the conditions of the xenograft test” value is recorded as “too toxic for an anti-tumoural effect to be observed”.
Consider `CCCC(=O)CC1CCC(C)C(CC(=O)NCC(O)C(C)C(=O)NCCCC2OC3(CCCC(CCC(C)C=C(C)C(C)O)O3)CCC2C)O1` (stereo not drawn) [Bistramide B], for which, in data set [1], the toxicity in vivo result is on record as “high toxicity”.
For orientation: IC50 means the concentration at which inhibition is half-maximal. Regarding `C/C=C\C(=O)CC1CCC(C)C(CC(=O)NCC(O)C(C)C(=O)NCCCC2OC3(CCCC(CCC(C)/C=C(\C)C(C)O)O3)CCC2C)O1` (stereo not drawn) [Bistramide L], the IC50 in data set [3] was determined as 0.72 µg/mL (≈ 1.02 µM); in data set [4], 0.48 µg/mL (≈ 0.681 µM); in data set [5], 0.12 µg/mL (≈ 0.17 µM); in data set [6] (Mus musculus, B16, read-out: IC50 (50% inhibition of cell growth)), 2.4 µg/mL (≈ 3.4 µM); in data set [7] (HT-29, read-out: IC50 (50% inhibition of cell growth)), 0.29 µg/mL (≈ 0.411 µM); in data set [8] (NSCLC-N6, read-out: IC50 (50% inhibition of cell growth)), 0.12 µg/mL (≈ 0.17 µM).
As to `C/C=C/C(=O)CC1CCC(C)C(CC(=O)NCC(O)C(C)C(=O)NCCCC2OC3(CCCC(CCC(C)C=C(C)C(C)=O)O3)CCC2C)O1` (stereo not drawn) [Bistramide C], in data set [1], the toxicity in vivo entry is on record as “high toxicity”.
Turning to `C/C=C/C(O)C/C=C/CC(C)C(O)CC(=O)NCC(O)C(C)C(=O)NCCCC1OC2(CCCC(CCC(C)/C=C(\C)C(C)O)O2)CCC1C` (stereo not drawn) [Bistramide K], the IC50 in data set [3] was over 10 µg/mL; in data set [4] (p388s), 0.57 µg/mL (≈ 0.806 µM); in data set [5] it was over 10 µg/mL; in data set [6] (Mus musculus, B16; read-out: IC50 (50% inhibition of cell growth)), 1.9 µg/mL (≈ 2.69 µM); in data set [7] (HT 29, read-out: IC50 (50% inhibition of cell growth)) it was 5.6 µg/mL (≈ 7.92 µM); in data set [8] (NSCLC.N6-L16, read-out: IC50 (50% inhibition of cell growth)), 3.23 µg/mL (≈ 4.57 µM). The “tumoural growth relative to controls (100%)” value in data set [2] (10 mg/kg, IP, for 16 days, at the end of 30 days) turned out to be 49%.
